Test results taken from the supplement of paper PMC10307832.

What was measured:
Assay in all cases: relative viability (nuclei count vs DMSO), 5 days (fraction); higher = more cells survive
XMD13-2 + Foretinib = compound: C1CC1C(=O)NC2=NNC3=C2C=CC(=C3)C4=CC(=CC=C4)C(=O)NC5CC5 [XMD13-2] + COc1cc2c(Oc3ccc(NC(=O)C4(C(=O)Nc5ccc(F)cc5)CC4)cc3F)ccnc2cc1OCCCN1CCOCC1 [Foretinib] (partner 0.25 µM)
Outline: (§1)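 Lung cancer cell lines were seeded in 1536-well plates and dosed by pin tool the next day, with either a single drug or a fixed anchor-drug dose combined with five library-drug doses (not always all listed) spaced in √10 steps. Five days later, one step fixed the cells and stained their nuclei (final 0.05% Triton X-100, 1% formaldehyde, 1 ug/ml Hoechst), and nuclei were counted on 4× images. Relative viability is the nuclei count in treated wells divided by the count in vehicle wells, and each value is the median of duplicate plates.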

ALW-II-49-7 + Lapatinib = compound: Cc1ccc(C(=O)Nc2cccc(C(F)(F)F)c2)cc1Nc1cncc(C(N)=O)c1 [ALW-II-49-7] + CS(=O)(=O)CCNCc1ccc(-c2ccc3ncnc(Nc4ccc(OCc5cccc(F)c5)c(Cl)c4)c3c2)o1 [Lapatinib] (partner 2 µM)
Outline: as §1

XMD13-2 + Phenformin = compound: C1CC1C(=O)NC2=NNC3=C2C=CC(=C3)C4=CC(=CC=C4)C(=O)NC5CC5 [XMD13-2] + N=C(N)NC(=N)NCCc1ccccc1 [Phenformin] (partner 250 µM)
Outline: as §1

ALW-II-49-7 + Crizotinib = compound: Cc1ccc(C(=O)Nc2cccc(C(F)(F)F)c2)cc1Nc1cncc(C(N)=O)c1 [ALW-II-49-7] + C[C@@H](Oc1cc(-c2cnn(C3CCNCC3)c2)cnc1N)c1c(Cl)ccc(F)c1Cl [Crizotinib] (partner 1 µM)
Outline: as §1

| Cell Line | relative viability (XMD13-2 + Foretinib; first compound 0.05 µM) | relative viability (XMD13-2 + Foretinib; first compound 0.1581 µM) | relative viability (XMD13-2 + Foretinib; first compound 0.5 µM) | relative viability (XMD13-2 + Foretinib; first compound 1.581 µM) | relative viability (XMD13-2 + Foretinib; first compound 5 µM) | relative viability (ALW-II-49-7 + Lapatinib; first compound 0.08 µM) | relative viability (ALW-II-49-7 + Lapatinib; first compound 0.253 µM) | relative viability (ALW-II-49-7 + Lapatinib; first compound 0.8 µM) | relative viability (ALW-II-49-7 + Lapatinib; first compound 2.53 µM) | relative viability (ALW-II-49-7 + Lapatinib; first compound 8 µM) | relative viability (XMD13-2 + Phenformin; first compound 0.05 µM) | relative viability (XMD13-2 + Phenformin; first compound 0.1581 µM) | relative viability (XMD13-2 + Phenformin; first compound 0.5 µM) | relative viability (XMD13-2 + Phenformin; first compound 1.581 µM) | relative viability (XMD13-2 + Phenformin; first compound 5 µM) | relative viability (ALW-II-49-7 + Crizotinib; first compound 0.08 µM) | relative viability (ALW-II-49-7 + Crizotinib; first compound 0.253 µM) | relative viability (ALW-II-49-7 + Crizotinib; first compound 0.8 µM) | relative viability (ALW-II-49-7 + Crizotinib; first compound 2.53 µM) | relative viability (ALW-II-49-7 + Crizotinib; first compound 8 µM) |
| --- | --- | --- | --- | --- | --- | --- | --- | --- | --- | --- | --- | --- | --- | --- | --- | --- | --- | --- | --- | --- |
| NCI-H2228 | 0.912 | 1.13 | 0.839 | 0.875 | 1.02 | 0.996 | 0.595 | 0.984 | 1.08 | 0.659 | 0.346 | 0.37 | 0.295 | 0.313 | 0.362 | 0.541 | 0.505 | 0.423 | 0.483 | 0.27 |
| NCI-H1650 | 1.36 | 1.07 | 1.15 | 0.967 | 1.81 | 0.955 | 0.846 | 0.854 | 1.04 | 0.753 | 0.634 | 0.476 | 0.552 | 0.432 | 0.558 | 0.946 | 0.859 | 0.931 | 1.01 | 1.14 |
| NCI-H358 | 0.805 | 0.767 | 0.904 | 0.685 | 0.335 | 0.518 | 0.387 | 0.423 | 0.538 | 0.5 | 0.358 | 0.323 | 0.336 | 0.351 | 0.304 | 0.616 | 0.412 | 0.486 | 0.435 | 0.539 |
| COR-L 105 | 1.16 | 1.19 | 0.729 | 0.883 | 0.899 | 0.318 | 0.372 | 0.335 | 0.359 | 0.416 | 0.589 | 0.532 | 0.455 | 0.506 | 0.452 | 0.737 | 0.805 | 0.864 | 0.653 | 0.72 |
| LU99A | 0.977 | 0.734 | 0.831 | 0.824 | 0.58 | 1.03 | 0.919 | 0.739 | 1.12 | 0.999 | 1.08 | 0.752 | 0.833 | 0.885 | 0.852 | 0.535 | 0.508 | 0.521 | 0.604 | 0.546 |
| H3255 | 0.886 | 0.891 | 0.893 | 0.696 | 0.984 | 0.27 | 0.363 | 0.266 | 0.225 | 0.212 | 0.21 | 0.378 | 0.409 | 0.364 | 0.358 | 0.945 | 0.993 | 0.81 | 0.696 | 0.564 |
| NCI-H1734 | 1.05 | 0.843 | 0.864 | 0.8 | 0.658 | 1.07 | 1.07 | 1.05 | 1.04 | 0.898 | 0.463 | 0.354 | 0.391 | 0.386 | 0.363 | 0.787 | 0.642 | 0.614 | 0.762 | 0.651 |
| NCI-H650 | 1.16 | 1.02 | 1.14 | 1.06 | 0.972 | 0.843 | 0.843 | 0.915 | 0.841 | 0.662 | 0.438 | 0.544 | 0.534 | 0.425 | 0.488 | 0.679 | 0.699 | 0.62 | 0.43 | 0.516 |
